# Columns and labels:
# [1] = literature value (ref 40); cited from earlier work
# [2] = Complex formation equilibria (stability constants) with Gd^3+; type: physicochemical
# Experimental: (§1) To evaluate the affinity of H4noneunpaX towards metal ions of medicinal importance—e.g. Sc^3+, In^3+, Lu^3+, Dy^3+, Gd^3+, Sm^3+, La^3+— the complex formation equilibria were studied using both combined potentiometric-spectrophotometric titrations, and in all cases, acidic in-batch UV-vis spectrophotometric titrations below pH 2. […]
# (§2) All potentiometric titrations were carried out with a Metrohm Titrando 809 and a Metrohm Dosino 800 with a Ross combined electrode. Direct titrations were recorded using a Varian Cary 60 UV-vis spectrophotometer (200-350 nm spectral range) equipped with an optic dip probe (0.2 cm path length), while acidic in-batch experiments were measured with a standardised glass cuvette (1 cm path length). A temperature-controlled (298 K) 20 mL glass cell with an inlet-outlet adapter for nitrogen gas purging (purified via a 10% NaOH solution to exclude CO2 prior to and during each titration) was used as a titration cell. The electrode was calibrated daily in hydrogen ion concentration by direct titration of HCl with freshly prepared NaOH solution, and the results were analysed with the Gran procedure^55 to determine the standard potential (E°) and the ionic product of water (pKw), at 298 K, with 0.16 M NaCl as a supporting electrolyte. […]
# (§3) The complex formation equilibria of H4noneunpaX with Sc^3+, In^3+, Lu^3+, Dy^3+, Gd^3+, Sm^3+, and La^3+ were evaluated using both combined potentiometric-spectrophotometric titrations, and acidic in-batch UV-vis spectrophotometric titrations below pH 2. […] Measurements were recorded at T=298 K, I=1.0 cm, the Hammett acidity function (H0) was used determination of the pH in highly acidic solutions rather than electrode potentials. Metal solutions were prepared from atomic absorption spectroscopy (AAS) standards, which were previously evaluated using Gran's method of titrating equimolar solutions of a given metal ion and Na2H2EDTA against NaOH to determine the acid concentration. […]
# [3] = Human serum stability challenge; type: in vitro ADME; conditions: complexes with [^111In]In^3+, [^155Tb]Tb^3+, [^177Lu]Lu^3+, [^225Ac]Ac^3+; 37° C., 5-7 days
# Experimental: All experiments were performed at 37° C. and monitored via radio-iTLC (n=3).
# Human serum stability studies were carried out by addition of each radiolabelled complex or bioconjugate (100 μL) to vials containing human serum albumin (100 μL) and incubating the resulting solutions at 37° C. over 5-7 days. The radiochemical purity (RCP) was determined by iTLC using SA-paper plates and EDTA (50 mM, pH 5.5 or 7.0) as eluent, whereby transchelated radioactivity migrates with the solvent front (Rf=1.0) while intact metal complexes remain at the baseline (Rf=0). All studies were performed in triplicate, and the average % RCP used for assessment of each compound.
# [4] = Complex formation equilibria (stability constants) with Dy^3+; type: physicochemical
# Experimental: as §1, §2, §3
# [5] = Protonation constants by combined potentiometric-spectrophotometric and acidic in-batch UV-vis titrations; type: physicochemical; conditions: 25° C.
# Excerpt: Prior to investigation of the thermodynamic stability of different metal complexes, the protonation constants of the chelating ligand must be determined independently, due to the competition between a given metal ion with a proton for the same coordinating group in the metal complex reaction. Combined potentiometric and UV-vis spectrophotometric titrations were used to evaluate the protonation constants of H4noneunpaX between pH˜2-11.5, while acidic in-batch UV-vis spectrophotometric titrations were used to determine the protonation constants for the most acidic protons, which were below the threshold of the pH electrode (pH<2). All eight protonation constants for H4noneunpaX were determined through refinement of the experimental data using HyperSpec^24 and Hyperquad^25, Table 3.
# (§4) All potentiometric titrations were carried out with a Metrohm Titrando 809 and a Metrohm Dosino 800 with a Ross combined electrode. Direct titrations were recorded using a Varian Cary 60 UV-vis spectrophotometer (200-350 nm spectral range) equipped with an optic dip probe (0.2 cm path length), while acidic in-batch experiments were measured with a standardised glass cuvette (1 cm path length). A temperature-controlled (298 K) 20 mL glass cell with an inlet-outlet adapter for nitrogen gas purging (purified via a 10% NaOH solution to exclude CO2 prior to and during each titration) was used as a titration cell. The electrode was calibrated daily in hydrogen ion concentration by direct titration of HCl with freshly prepared NaOH solution, and the results were analysed with the Gran procedure^55 to determine the standard potential (E°) and the ionic product of water (pKw), at 298 K, with 0.16 M NaCl as a supporting electrolyte. Solutions under study were titrated with carbonate-free NaOH solution (˜0.16 M) which was standardized against freshly recrystallized potassium hydrogen phthalate.
# The protonation equilibria of H4noneunpaX were evaluated through combined potentiometric-spectrophotometric titrations of solutions containing the ligand ([L]=9.57×10^−4 M) in 0.16 M NaCl (T=298 K, I=0.2 cm). Electromotive force (EMF) values and UV-vis spectra were recorded after each addition of NaOH, and the apparatuses synchronized to have consistent time-intervals (30 s) between each addition/equilibration and data acquisition. Further acidic in-batch UV-vis spectrophotometry studies were performed to obtain the protonation constants for the most acidic ionisable protons of H4noneunpaX, which were below the threshold of the pH electrode (pH<2). Separate solutions of the ligand were prepared at constant molarity ([L]=1×10^−4 M) with differing amounts of HCl (0.1 M and 3.0 M), while maintaining a constant ionic strength (0.16 M NaCl) wherever possible. In each case, the solution stoichiometry was used to calculate the equilibrium concentration of H^+ ions, following the Hammett acidity function (H0) for determination of acidity in high concentration acid solutions. All eight protonation constants for H4noneunpaX were determined through refinement of the experimental data using HypSpec2014^24 and Hyperquad2013^25 software.
# (§5) All the potentiometric measurements were processed using the Hyperquad2013^25 software, while spectroscopic measurements were analysed using HypSpec2014.^24 Proton dissociation constants corresponding to hydrolysis of the Sc^3+, In^3+, Lu^3+, Dy^3+ Gd^3+, Sm^3+, and La^3+ aqueous ions used in the calculations were taken from Baes and Mesmer. Speciation diagrams were generated with the calculated protonation constants and stability constants using Hyss software.^56
# (§6) Each species generated in the investigated systems can be defined in accordance with the general equilibrium equation pM+qH+rL=MpHqLr (charges omitted). Wherein, a complex containing a metal ion, M, proton, H and ligand, L, has the general formula MpHqLr. […]
# [6] = Complex formation equilibria (stability constants) with Sc^3+; type: physicochemical
# Experimental: as §1, §2, §3
# [7] = Complex formation equilibria (stability constants) with La^3+; type: physicochemical
# Experimental: as §1, §2, §3
# [8] = Complex formation equilibria (stability constants) with In^3+; type: physicochemical
# Experimental: as §1, §4
# The complex formation equilibria of H4noneunpaX with Sc^3+, In^3+, Lu^3+, Dy^3+, Gd^3+, Sm^3+, and La^3+ were evaluated using both combined potentiometric-spectrophotometric titrations, and acidic in-batch UV-vis spectrophotometric titrations below pH 2. For combined potentiometric-spectrophotometric titrations (spectral range: 200-350 nm), solutions containing a 1:1 molar ratio of metal-to-ligand ([M^3+]≈[H4noneunpaX]=8.40×10^−4 M) were titrated against NaOH solution at T=298 K, I=0.2 cm. Acidic in-batch UV-vis spectrophotometric measurements (spectral range: 200-350 nm) were carried out using sets of solutions containing a 1:1 molar ratio of metal-to-ligand ([M^3+]≈[H4noneunpaX]≈1×10^−4 M) with differing amounts of HCl (0.1 M and 3.0 M), to give samples ranging from pH 0-2. Measurements were recorded at T=298 K, I=1.0 cm, the Hammett acidity function (H0) was used determination of the pH in highly acidic solutions rather than electrode potentials. Metal solutions were prepared from atomic absorption spectroscopy (AAS) standards, which were previously evaluated using Gran's method of titrating equimolar solutions of a given metal ion and Na2H2EDTA against NaOH to determine the acid concentration.
# as §5, §6
# [9] = Complex formation equilibria (stability constants) with Lu^3+; type: physicochemical
# Experimental: as §1, §2, §3
# [10] = Complex formation equilibria (stability constants) with Sm^3+; type: physicochemical
# Experimental: as §1, §2, §3
# [11] = literature value (ref 11); cited from earlier work
# [12] = cited from earlier work
# [13] = −log[Mfree] when [L] = 10 μM, [M] = 1 μM at pH 7.4
molecule,measurement,setting,value
[^177Lu][Lu(DOTATATE)],accumulation in the adrenal glands,[1],8.95 % ID/g
same,accumulation in the lungs,[1],17.4 % ID/g
same,accumulation in the pancreas,[1],10.9 % ID/g
same,uptake in the kidneys,[1],6.31 % ID/g
O=C(O)CN(CCOCCN(Cc1cccc(C(=O)O)n1)Cc1cccc(C(=O)O)n1)CC(=O)O [H4noneunpaX],log KMHL,"[2]; 25° C., I = […] NaCl",2.80(1)
same,log KML,"[2]; 25° C., I = […] NaCl",20.87(4)
same,pM,[2]; [13],20.2
same,release of bound radiometal in human serum,[3],no release of bound radiometal
same,log KMHL,"[4]; 25° C., I = […] NaCl",2.29(2)
same,log KML,"[4]; 25° C., I = […] NaCl",21.99(5)
same,pM,[4]; [13],21.3
same,Σlog KHqL,[5]; I = […] NaCl,27.35 (6)
same,log K (log K3),"[5]; H2L + H^+ ↔ H3L, I = […] NaCl",3.79
same,log β,"[5]; H2L + H^+ ↔ H3L, I = […] NaCl",19.71 (1)
same,log K (log K4),"[5]; H3L + H^+ ↔ H4L, I = […] NaCl",2.83
same,log β,"[5]; H3L + H^+ ↔ H4L, I = […] NaCl",22.54 (2)
same,log K (log K5),"[5]; H4L + H^+ ↔ H5L, I = […] NaCl",2.38
same,log β,"[5]; H4L + H^+ ↔ H5L, I = […] NaCl",24.92 (3)
same,log K (log K6),"[5]; H5L + H^+ ↔ H6L, I = […] NaCl",2.14
same,log β,"[5]; H5L + H^+ ↔ H6L, I = […] NaCl",27.06 (4)
same,log K,"[5]; H6L + H^+ ↔ H7L, I = […] NaCl",1.01
same,log β,"[5]; H6L + H^+ ↔ H7L, I = […] NaCl",28.07 (4)
same,log β,[5]; H7L + H^+ ↔ H8L,27.35 (6)
same,log K (log K2),"[5]; HL + H^+ ↔ H2L, I = […] NaCl",7.08
same,log β,"[5]; HL + H^+ ↔ H2L, I = […] NaCl",15.92 (1)
same,log K (log K1),"[5]; L + H^+ ↔ HL, I = […] NaCl",8.84
same,log β,"[5]; L + H^+ ↔ HL, I = […] NaCl",8.84 (1)
same,log KMHL,"[6]; 25° C., I = […] NaCl",3.07(1)
same,log KML,"[6]; 25° C., I = […] NaCl",23.57(2)
same,pM,[6]; [13],22.9
same,log KMHL,"[7]; 25° C., I = […] NaCl",3.22(2)
same,log KML,"[7]; 25° C., I = […] NaCl",18.45(4)
same,pM,[7]; [13],17.8
same,log KM(OH)2L,"[8]; 25° C., I = […] NaCl",9.06(4)
same,log KM(OH)L,"[8]; 25° C., I = […] NaCl",8.58(4)
same,log KMHL,"[8]; 25° C., I = […] NaCl",6.17(3)
same,log KML,"[8]; 25° C., I = […] NaCl",27.64(2)
same,pM,[8]; [13],26.5
same,log KMHL,"[9]; 25° C., I = […] NaCl",2.28(3)
same,log KML,"[9]; 25° C., I = […] NaCl",21.93(3)
same,pM,[9]; [13],21.3
same,log KMHL,"[10]; 25° C., I = […] NaCl",2.77(1)
same,log KML,"[10]; 25° C., I = […] NaCl",21.04(2)
same,pM,[10]; [13],20.4
O=C(O)CN(CCN(CC(=O)O)CC(=O)O)CCN(CC(=O)O)CC(=O)O [DTPA],pLu,[11],19.1
O=C(O)CN1CCN(CC(=O)O)CCN(CC(=O)O)CCN(CC(=O)O)CC1 [DOTA],pLu,[11],17.1
O=C(O)CN(CCOCCN(CC(=O)O)Cc1cccc(C(=O)O)n1)Cc1cccc(C(=O)O)n1 [H4noneunpa],log K2,"[12]; literature value (ref 13), terminal amine",7.63
"O=C(O)CN(CCO)CC(=O)O [HEIDA, N-(2-hydroxyethyl)iminodiacetic acid]",log K1,"[12]; literature value (ref 26), iminodiacetate amine",8.68
